Data from patent US6395876B1 (Medical College of Georgia Research Institute, Inc., priority 1997, dated 2002).
Values joined by “and” are separate entries in the source; they are usually repeats but may differ in a detail not shown here. Equal entries are not always repeated. “Also recorded” adds a separate entry of the source. Where two headings read alike, the source gives them in different places.

Legend:
[1] = test system: high affinity tryptophan transporter; test: Competition of unlabeled substrates with radiolabeled tryptophan uptake, high-affinity system, macrophages; format: cell-based, human
Procedure: Uptake measurements. Single cell suspensions were obtained by treating macrophage monolayers with 2 mM EDTA in Hanks balanced salt solution for 15 minutes at room temperature. Cells were washed twice in Tris-choline buffer (150 mM choline chloride, 10 mM tris, pH 7.4), suspended in Tris-choline at between one and 2×10^6 cells/ml, and 100 μl/well added to 96 well microtiter plates. Titrations of radiolabeled amino acids were then transferred to the assay plate and uptake allowed to proceed for 10 minutes (the linear range). At the end of the assay period, wells were harvested simultaneously onto glass-fiber filters and washed vigorously for 30 seconds with phosphate buffered saline solution using a Tomtec 96 well parallel harvester. Nonspecific binding of radioactivity to the filters (based on wells without cells) was typically less than 10% of the total signal, and was subtracted from each data point. All assays were performed in triplicate; where error bars are not shown the SD between replicates was less than 10%. In all assays, the uptake rate (V) was normalized per 1×10^6 cells (expressed as pmol 10^6 cells^−1. 10 min^−1). Normalization to milligrams protein was considered less informative because protein content can change markedly during macrophage differentiation, independently of other functional attributes.

system L [2] = test: Competition of unlabeled substrates with radiolabeled tryptophan uptake, system L component, macrophages; format: cell-based, human; settings: for Ki: read-out: Ki (fit to Equation 1, single-system competitive model)
Excerpt: (§1) For competitive inhibition studies, the Ki value for each competitor was estimated by fitting the measured inhibition curve to the formula in Equation 1 (Cheng and Prusoff 1973, Biochem. Pharmacol. 22, 3099-3108). [formula]
(§2) where [S] is the concentration of labeled substrate, [I] is the concentration of unlabeled inhibitor, Vi is the observed rate of uptake in the presence of inhibitor, Ki is the putative affinity constant of the inhibitor for the transporter, and Km and Vmax have their customary meanings.

system L [3] = test: Radiolabeled amino acid uptake saturation kinetics, lower-affinity system, macrophages; format: cell-based, human; settings: for Km: read-out: Km of low affinity transporter (system L)
Excerpt: Monocyte isolation and culture.
Analysis of saturation kinetics.

system L [4] = test: Competition of unlabeled tryptophan for uptake of radiolabeled leucine or phenylalanine, macrophages; format: cell-based, human; settings: labeled leucine or phenylalanine 125 nM
Excerpt: as §1, §2

[5] = test system: high affinity tryptophan transporter
Procedure: Human peripheral blood monocytes were isolated from healthy volunteer donors by leukocytapheresis and counterflow centrifugal elutriation, following appropriate informed consent under a protocol approved by our Institutional Review Board.
Single cell suspensions were obtained by treating macrophage monolayers with 2 mM EDTA in Hanks balanced salt solution for 15 minutes at room temperature. Cells were washed twice in Tris-choline buffer (150 mM choline chloride, 10 mM tris, pH 7.4), suspended in Tris-choline at between one and 2×10^6 cells/ml, and 100 μl/well added to 96 well microtiter plates. […] Nonspecific binding of radioactivity to the filters (based on wells without cells) was typically less than 10% of the total signal, and was subtracted from each data point. […] In all assays, the uptake rate (V) was normalized per 1×10^6 cells (expressed as pmol 10^6 cells^−1. 10 min^−1). […]
Uptake kinetics were analyzed using an Eadie-Hofstee transformation (V/[S] vs. V) to identify linear concentration ranges for each transporter. Data from these two ranges were then analyzed separately using double-reciprocal (Lineweaver-Burk, 1/[S] vs. 1/V) plots to determine Km and Vmax. […] Kinetic parameters were calculated on a minimum of 4-6 points, and were considered reliable if the correlation coefficient of the regression line was greater than 0.95. […]

system L [6] = settings: read-out: reported Km of system L for tryptophan; reported affinity; cited from earlier work
[7] = test system: monocyte derived macrophages; test: Total tryptophan uptake in monocyte-derived macrophages (sodium and temperature dependence); format: cell-based, human
Procedure: The majority of tryptophan uptake is sodium-independent. Uptake in the absence of sodium was 86±6% of uptake in saline, n=4 Therefore all subsequent assays were performed in the absence of sodium.

[8] = unlabeled competitor vs radiolabeled tryptophan (125 or 250 nM)
[9] = unlabeled competitor 4 μM, radiolabeled tryptophan 125 nM
[10] = read-out: IC50 for inhibition of radiolabeled tryptophan uptake, radiolabeled tryptophan 125 nM
[11] = uptake of the radiolabeled amino acid, high substrate concentrations (8-64 μM)

In the case of `Cn1cc(C[C@H](N)C(=O)O)c2ccccc21` [1-methyl tryptophan], the “competition with tryptophan for the high-affinity system” value (“competition with tryptophan” for short) [1, 8] is reported as “no competition”.
For `N[C@@H](Cc1c[nH]c2ccc(O)cc12)C(=O)O` [5-hydroxy tryptophan], the “competition with tryptophan” value [1, 8] was “did not compete” and the “competition with tryptophan” value ([1]; unlabeled competitor vs radiolabeled tryptophan (125 or 250 nM), listed as 5-hydroxy derivative of tryptophan) was “failed to compete”.
In the case of `N=C(N)NCCC[C@H](N)C(=O)O` [ARG], the “effect of 4 μM unlabeled competitor on tryptophan uptake” value (from here on “effect of 4 μM unlabeled competitor”) [1] is reported as “little impact”.
For `NC1(C(=O)O)CC2CCC1C2` (centres unmarked) [BCH, 2-aminobicyclo(2,2,1)-hepatane-2-carboxylic acid], the “mode of inhibition of tryptophan uptake, high-affinity range” value ([1]; less than 1 μM tryptophan, 500 μM unlabeled BCH) was “strictly non-competitive; also recorded: weak non-competitive inhibitor”, the IC50 ([1]; saturation kinetics of tryptophan (<1 μM) with or without 500 μM BCH, read-out: IC50 for interaction with the high-affinity system) was > 500 µM and the “effect of 4 μM unlabeled competitor” value [1, 9] was “minimal effect; also recorded: little impact”. The “competition with tryptophan” value [1, 8] was “no evidence of competition; also recorded: did not compete; also recorded: not able to compete”, the “mode of inhibition of tryptophan uptake, system L range” value (system L [2]; greater than 8 μM tryptophan, 500 μM unlabeled BCH) was “competitive inhibitor; also recorded: competitively inhibits” and the “IC50 of BCH relative to IC50 of tryptophan” value (system L [2]; inhibition of tryptophan transport, radiolabeled tryptophan 125 nM) was “approximately 100 fold”. The “inhibition of tryptophan transport by 8 mM unlabeled substrate” value (system L [2]; radiolabeled tryptophan 125 nM, unlabeled substrates 8 mM each) was “inhibited”, the Ki (system L [2]; radiolabeled tryptophan 125 nM) was 37 µM and the IC50 (system L [2]; [10]) was 37 µM.
For `N[C@H](Cc1c[nH]c2ccccc12)C(=O)O` [D-tryptophan], the “competition with tryptophan” value [1] was “did not compete”.
For `N[C@@H](Cc1c[nH]cn1)C(=O)O` [HIS], the “effect of 4 μM unlabeled competitor” value [1, 9] was “little impact”.
For `CC[C@H](C)[C@H](N)C(=O)O` [ILE], the “effect of 4 μM unlabeled competitor” value [1, 9] was “little impact”.
With `NCCCC[C@H](N)C(=O)O` [LYS] the “effect of 4 μM unlabeled competitor” value [1, 9] was “little impact”.
In the case of `CSCC[C@H](N)C(=O)O` [MET], the “effect of 4 μM unlabeled competitor” value [1, 9] is reported as “little impact”.
For `CC(=O)N[C@@H](Cc1c[nH]c2ccccc12)C(=O)O` [N-acetyl tryptophan], the “competition with tryptophan” value [1, 8] was “did not compete”.
For `C[C@@H](O)[C@H](N)C(=O)O` [THR], the “effect of 4 μM unlabeled competitor” value [1, 9] was “little impact”.
With `N[C@@H](Cc1ccc(O)cc1)C(=O)O` [TYR, tyrosine] the “effect of 4 μM unlabeled competitor” value [1, 9] was “little impact”.
For `CC(C)[C@H](N)C(=O)O` [VAL], the “effect of 4 μM unlabeled competitor” value [1, 9] was “little impact”.
For `CC(C)C[C@H](N)C(=O)O` [leucine], the “effect of 4 μM unlabeled competitor” value [1, 9] was “little impact”, the “competition with tryptophan” value [1, 8] was “do not compete” and the Km (system L [3]; [11]) was 26 ± 6 µM.
With `N[C@@H](Cc1ccccc1)C(=O)O` [phenylalanine] the “effect of 4 μM unlabeled competitor” value [1, 9] was “little impact”, the “competition with tryptophan” value [1, 8] was “do not compete; also recorded: no detectable competition” and the Km (system L [3]; [11]) was 29 ± 2 µM. For the same compound, the Ki (system L [2]; radiolabeled tryptophan 125 nM) was ~10 µM.
In the case of `NCCc1c[nH]c2ccc(O)cc12` [serotonin], the “competition with tryptophan” value [1, 8] is reported as “did not compete”.
In the case of `N[C@@H](Cc1c[nH]c2ccccc12)C(=O)O` [tryptophan], the Ki ([1]; radiolabeled tryptophan 125 nM, read-out: Ki (fit to Equation 1, single-system model)) is reported as 0.36 µM, the IC50 [1, 10] is reported as 0.36 µM and the “effect of 4 μM unlabeled competitor” value [1, 9] is reported as “markedly inhibited”. The “calculated uptake via system L alone” value (system L [3]; Equation 1, 50 nM tryptophan, 1 mM total other competing amino acids) was 1.5 fmol 10^6 cells^−1. 10 min^−1, the “Vmax, system L component” value (system L [3]; after macrophage differentiation) was 27±4 pmol 10^6 cells^−1. 10 min^−1 and the “Vmax, system L component” value (system L [3]; before macrophage differentiation) was 14±8 pmol 10^6 cells^−1. 10 min^−1. For the same compound, the Km (system L [3]) was 27 µM and 30 µM and 20 to 30 µM, the “high-affinity inhibition of phenylalanine or leucine uptake” value (system L [4]) was “no detectable” and the Ki (system L [4]; read-out: Ki of tryptophan versus labeled leucine or phenylalanine uptake) was 30 µM. For the same compound, the Km [5] was 0.29 ± 0.16 µM, the “calculated uptake with the selective high-affinity system present” value [5] was 70 fmol 10^6 cells^−1. 10 min^−1 and the Km (system L [6]) was 8 to 30 µM. The “reduction of the rate of tryptophan accumulation at 0° C.” value ([7]; 0° C. vs 25° C., up to 30 min) was 90% and the “uptake in the absence of sodium relative to uptake in saline” value ([7]; radiolabeled tryptophan 125 nM, choline chloride vs 150 mM NaCl) was 86% and 86±6%.
